Experimental data reported in ChEMBL document CHEMBL4145534, “Computer-aided insights into receptor-ligand interaction for novel 5-arylhydantoin derivatives as serotonin 5-HT7 receptor agents with antidepressant activity” (Eur J Med Chem, 2018).

Key:
[1] = target: 5-hydroxytryptamine receptor 7 (Homo sapiens, UniProt P34969); assay: Displacement of [3H]-5-CT from human 5HT7BR expressed in HEK293 cell membranes after 1 hr by Microbeta scintillation counting method
[2] = target: T1, Adrenergic receptor alpha-1 (Rattus norvegicus, UniProt P15823+P23944+P43140); assay: Displacement of [3H]-prazosin from alpha1-adrenergic receptor in rat brain cortex after 30 mins by Microbeta scintillation counting method
T1 sequence (P15823 whole entry): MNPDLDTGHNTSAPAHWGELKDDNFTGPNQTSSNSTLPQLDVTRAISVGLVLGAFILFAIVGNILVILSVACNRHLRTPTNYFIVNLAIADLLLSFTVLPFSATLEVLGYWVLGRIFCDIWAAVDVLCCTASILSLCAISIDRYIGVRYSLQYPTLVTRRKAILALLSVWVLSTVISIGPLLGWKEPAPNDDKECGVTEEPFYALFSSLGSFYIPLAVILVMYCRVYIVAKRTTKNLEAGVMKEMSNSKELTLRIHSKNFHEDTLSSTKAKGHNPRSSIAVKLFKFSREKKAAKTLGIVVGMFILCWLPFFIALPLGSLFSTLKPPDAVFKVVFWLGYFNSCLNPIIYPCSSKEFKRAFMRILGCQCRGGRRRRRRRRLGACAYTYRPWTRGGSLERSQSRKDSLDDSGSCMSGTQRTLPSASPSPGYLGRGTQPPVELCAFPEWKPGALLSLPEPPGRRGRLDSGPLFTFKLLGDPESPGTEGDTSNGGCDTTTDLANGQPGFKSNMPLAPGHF
T1 sequence (P23944 whole entry): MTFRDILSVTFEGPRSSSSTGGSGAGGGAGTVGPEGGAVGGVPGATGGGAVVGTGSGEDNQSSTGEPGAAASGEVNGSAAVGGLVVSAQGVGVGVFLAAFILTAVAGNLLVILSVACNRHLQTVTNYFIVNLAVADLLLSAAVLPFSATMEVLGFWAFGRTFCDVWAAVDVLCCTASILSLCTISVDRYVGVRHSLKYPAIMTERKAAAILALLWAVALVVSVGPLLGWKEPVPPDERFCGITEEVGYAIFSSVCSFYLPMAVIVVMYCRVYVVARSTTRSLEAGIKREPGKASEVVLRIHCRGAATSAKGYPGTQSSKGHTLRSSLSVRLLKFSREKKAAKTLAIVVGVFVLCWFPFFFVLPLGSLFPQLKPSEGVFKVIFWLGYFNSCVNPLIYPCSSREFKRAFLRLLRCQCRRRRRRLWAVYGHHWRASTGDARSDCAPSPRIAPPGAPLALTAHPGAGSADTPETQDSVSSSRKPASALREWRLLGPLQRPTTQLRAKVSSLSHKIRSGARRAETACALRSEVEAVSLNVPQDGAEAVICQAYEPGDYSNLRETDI
T1 sequence (P43140 whole entry): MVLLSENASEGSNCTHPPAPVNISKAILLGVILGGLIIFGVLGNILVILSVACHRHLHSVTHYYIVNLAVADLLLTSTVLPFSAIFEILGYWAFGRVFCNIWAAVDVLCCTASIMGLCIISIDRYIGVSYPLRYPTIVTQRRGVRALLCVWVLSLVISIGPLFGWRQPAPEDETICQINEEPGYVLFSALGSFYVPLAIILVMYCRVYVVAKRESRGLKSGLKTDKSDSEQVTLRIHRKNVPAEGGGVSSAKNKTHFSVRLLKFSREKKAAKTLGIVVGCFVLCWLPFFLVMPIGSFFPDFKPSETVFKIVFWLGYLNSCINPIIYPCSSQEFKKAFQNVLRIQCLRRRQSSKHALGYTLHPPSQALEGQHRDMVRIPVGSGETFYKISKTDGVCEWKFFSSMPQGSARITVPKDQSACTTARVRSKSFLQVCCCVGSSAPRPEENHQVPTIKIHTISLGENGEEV

[3] = target: T2, Adrenergic receptor alpha-2 (Rattus norvegicus, UniProt P22086+P19328+P22909); assay: Displacement of [3H]-clonidine from alpha2-adrenergic receptor in rat brain cortex after 30 mins by Microbeta scintillation counting method
T2 sequence (P22086 whole entry): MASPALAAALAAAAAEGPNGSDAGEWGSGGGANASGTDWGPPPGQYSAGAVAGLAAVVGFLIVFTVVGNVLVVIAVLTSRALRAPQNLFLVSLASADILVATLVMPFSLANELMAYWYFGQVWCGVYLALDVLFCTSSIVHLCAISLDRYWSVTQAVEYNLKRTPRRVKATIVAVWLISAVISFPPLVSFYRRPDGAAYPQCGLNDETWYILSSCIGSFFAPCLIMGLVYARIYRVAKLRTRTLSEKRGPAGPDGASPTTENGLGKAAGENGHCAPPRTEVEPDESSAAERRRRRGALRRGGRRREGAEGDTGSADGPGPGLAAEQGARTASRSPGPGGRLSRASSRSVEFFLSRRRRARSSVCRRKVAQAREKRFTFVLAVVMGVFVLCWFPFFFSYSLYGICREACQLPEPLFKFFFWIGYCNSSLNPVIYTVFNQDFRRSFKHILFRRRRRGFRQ
T2 sequence (P19328 whole entry): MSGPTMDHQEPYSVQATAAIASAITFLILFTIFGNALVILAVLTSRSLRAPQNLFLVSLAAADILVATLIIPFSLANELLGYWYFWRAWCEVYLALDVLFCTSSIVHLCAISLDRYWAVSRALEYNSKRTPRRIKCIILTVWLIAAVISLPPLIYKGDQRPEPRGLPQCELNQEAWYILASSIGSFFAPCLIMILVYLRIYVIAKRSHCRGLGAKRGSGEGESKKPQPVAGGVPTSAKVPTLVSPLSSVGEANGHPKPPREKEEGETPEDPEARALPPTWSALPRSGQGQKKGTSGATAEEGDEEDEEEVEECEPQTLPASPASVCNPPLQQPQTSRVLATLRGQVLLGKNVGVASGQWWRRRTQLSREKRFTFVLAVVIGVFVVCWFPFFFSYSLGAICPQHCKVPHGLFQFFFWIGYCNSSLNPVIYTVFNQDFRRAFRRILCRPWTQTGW
T2 sequence (P22909 whole entry): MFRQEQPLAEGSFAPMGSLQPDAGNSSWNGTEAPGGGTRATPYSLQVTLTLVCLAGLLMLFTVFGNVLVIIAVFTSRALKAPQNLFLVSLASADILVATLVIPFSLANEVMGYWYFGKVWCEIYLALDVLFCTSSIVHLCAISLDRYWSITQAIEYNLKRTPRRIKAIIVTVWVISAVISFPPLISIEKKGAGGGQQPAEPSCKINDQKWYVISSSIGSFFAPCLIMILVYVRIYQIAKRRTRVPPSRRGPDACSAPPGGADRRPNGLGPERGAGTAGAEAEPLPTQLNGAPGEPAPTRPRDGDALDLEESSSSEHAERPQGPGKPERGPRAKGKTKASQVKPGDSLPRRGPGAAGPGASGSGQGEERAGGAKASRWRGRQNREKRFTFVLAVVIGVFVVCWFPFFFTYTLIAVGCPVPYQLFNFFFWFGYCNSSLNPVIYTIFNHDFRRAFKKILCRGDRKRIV

Chain of 5-hydroxytryptamine receptor 7 (P34969 whole entry): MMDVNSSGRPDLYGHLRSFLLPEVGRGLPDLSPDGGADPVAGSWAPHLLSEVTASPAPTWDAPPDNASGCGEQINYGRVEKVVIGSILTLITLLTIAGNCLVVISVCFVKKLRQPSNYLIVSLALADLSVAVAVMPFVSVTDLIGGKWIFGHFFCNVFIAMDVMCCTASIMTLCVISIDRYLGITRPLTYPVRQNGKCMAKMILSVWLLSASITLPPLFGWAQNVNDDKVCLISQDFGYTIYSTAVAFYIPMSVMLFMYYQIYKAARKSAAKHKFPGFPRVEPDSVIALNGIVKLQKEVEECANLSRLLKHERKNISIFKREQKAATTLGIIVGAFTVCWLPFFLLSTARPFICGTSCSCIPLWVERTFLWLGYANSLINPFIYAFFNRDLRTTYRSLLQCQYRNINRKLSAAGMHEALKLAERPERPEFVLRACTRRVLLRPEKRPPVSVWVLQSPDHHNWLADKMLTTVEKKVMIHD

Ki [1] [nM] | Ki [2] [nM] | Ki [3] [nM] | SMILES
7 | 200 | > 5000 | CC1(c2ccc(Br)cc2)NC(=O)N(CC(O)CN2CCN(c3ccccc3C#N)CC2)C1=O.Cl (racemic)
10 | 167 | > 5000 | COc1ccccc1N1CCN(CC(O)CN2C(=O)NC(C)(c3ccc(Br)cc3)C2=O)CC1.Cl (racemic)
9 | 250 | > 10000 | CC1(c2ccc(Cl)cc2)NC(=O)N(CC(O)CN2CCN(c3ccccc3C#N)CC2)C1=O.Cl (racemic)
